Measured values: patent US20240268379A1, “BIODEGRADABLE PVA/PVP HYDROGELS, USES AND PREPARATION THEREOF” (Bar-Ilan University, priority 2021, published 2024)

Test: Thermal stability of thymol by TGA-MS
Type: physicochemical
Conditions: 20° C./min, nitrogen
Method: Thermal gravimetric analysis (TGA) was carried out using SETSYS, by Setaram. The released products during the measurements were obtained by using Hiden HPR-20 QIC mass spectrometer (TGA) coupled with mass spectroscopy (MS). The analysis was conducted to study the stability effect of the PVA/PVP hydrogel, under heat treatment, on thymol, entrapped in the hydrogel, relative to thymol pure form. The tested samples were heated from 30° C. up to 630° C. (20° C./min heat rate) under nitrogen inert atmosphere (20 ml/min nitrogen flow rate).

- thymol loss end temperature: 130 °C
- thymol loss start temperature: 70 °C
Structure (SMILES): Cc1ccc(C(C)C)c(O)c1 [pure thymol, thymol]
